{"source": "paper PMC11347546", "about": "“A radioligand for in vitro autoradiography of CSF1R in post-mortem CNS tissues” (EJNMMI Research, 2024)", "key": {"CSF1R [1]": {"target": "T1, CSF1R (Mus musculus, UniProt P09581)", "T1 construct": "from tissue; host or cells: whole brain of male CD1 mice, radiotracer injected in vivo, brains counted ex vivo", "T1 sequence (P09581 20-977)": "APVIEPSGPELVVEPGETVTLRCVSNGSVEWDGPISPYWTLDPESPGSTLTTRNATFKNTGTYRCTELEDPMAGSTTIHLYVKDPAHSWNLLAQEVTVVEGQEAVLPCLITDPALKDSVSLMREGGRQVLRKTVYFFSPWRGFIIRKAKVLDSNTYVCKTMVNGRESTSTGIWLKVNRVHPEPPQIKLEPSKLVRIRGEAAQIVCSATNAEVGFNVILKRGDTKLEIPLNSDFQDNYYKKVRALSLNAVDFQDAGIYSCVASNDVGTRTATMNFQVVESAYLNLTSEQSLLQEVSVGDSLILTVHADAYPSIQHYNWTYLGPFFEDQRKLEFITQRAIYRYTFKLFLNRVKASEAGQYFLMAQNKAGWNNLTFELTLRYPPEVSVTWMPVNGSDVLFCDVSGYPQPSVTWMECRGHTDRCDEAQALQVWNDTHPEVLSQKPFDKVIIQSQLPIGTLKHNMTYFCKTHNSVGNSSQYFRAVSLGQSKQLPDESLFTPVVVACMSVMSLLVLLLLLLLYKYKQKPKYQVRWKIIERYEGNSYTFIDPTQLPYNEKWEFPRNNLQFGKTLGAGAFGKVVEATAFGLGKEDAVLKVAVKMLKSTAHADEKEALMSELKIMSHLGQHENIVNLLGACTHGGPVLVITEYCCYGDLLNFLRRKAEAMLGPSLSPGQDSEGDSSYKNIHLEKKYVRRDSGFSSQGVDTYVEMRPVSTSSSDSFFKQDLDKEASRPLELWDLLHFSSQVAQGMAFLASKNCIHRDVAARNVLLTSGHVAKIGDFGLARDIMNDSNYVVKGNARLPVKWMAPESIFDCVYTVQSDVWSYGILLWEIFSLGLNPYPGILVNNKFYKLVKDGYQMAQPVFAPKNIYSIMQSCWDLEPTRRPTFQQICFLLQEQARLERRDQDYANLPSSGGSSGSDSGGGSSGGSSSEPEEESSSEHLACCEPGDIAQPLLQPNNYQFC", "experiment": "Ex vivo brain uptake of [^11C]1 in LPS-induced murine model of neuroinflammation, baseline and CPPC blocking", "set-up": "species or system CD1 mice", "protocol": "Studies were performed in a murine LPS-induced neuroinflammation model under the conditions described previously. The percentage of the standardized uptake value (%SUV) uptake in the whole brain at […] after injection was corrected for blood radioactivity as SUV^whole brain/SUV^blood = SUV ratio (SUVR) (Fig. 1).\nFig. 1 Brain uptake of CSF1R radiotracer [^11C]1 in control mice (Base); LPS-treated mice (LPS base); and LPS-treated mice, blocking with CSF1R inhibitor (LPS block). The time point was 45 min after the radiotracer injection. The LPS treatment was IP, 10 mg/kg. Data are mean SUVR ± SD (n = 6). […] Statistical analysis: comparison of LPS-baseline versus control or LPS-block, ANOVA\nBrain regional distribution of [^11C]1 in neuroinflammation mouse model: The study was performed in the murine LPS-induced neuroinflammation model described previously. […] The LPS (O111:B4, Calbiochem, San Diego, CA) solution in sterile saline (10 mg/kg, 0.2 mL) was administered intraperitoneally and the radiotracer study was performed on the 3rd day thereafter.\nThe animals were injected IV with 3.7 MBq (0.1 mCi) [^11C]1 [specific radioactivity = 444 GBq/µmol (12 Ci/µmol)] and sacrificed by cervical dislocation at 45 min after the radiotracer injection. The whole brains were removed, dissected on ice and blood samples (0.2-0.5 cc) were taken from heartand their radioactivity content was determined in a γ-counter LKB/Wallac CompuGamma. The outcome variables were calculated as SUVR = SUVwhole brain/SUVblood."}, "CSF1R [2]": {"test_system": "CSF1R", "set-up": "method as in PMID 18242992", "conditions": "read-out: CSF1R functional potency IC50; cited from earlier work"}, "[3]": {"experiment": "Ex vivo regional brain distribution of [^11C]1 in control CD1 mice", "set-up": "species or system CD1 male mice", "conditions": "for Regional brain uptake: mean ± SD, n = 3", "protocol": "The regional brain uptake of [^11C]1 in control CD1 male mice at three time points after injection of radiotracer is shown in Table 2. […] The uptake in other regions studied here was lower.\nBrain regional distribution of [^11C]1 in control mice, baseline: All animal studies were conducted within the guidelines of approved IACUC protocols for mice and non-human primates. Male CD1 mice of four to eight weeks of age, weighing 24-29 g from Charles River Laboratories (Wilmington, MA) were used. […] The brains were removed and dissected on ice. The brain regions (cerebellum, hippocampus, frontal cortex, brain stem and rest of brain) were weighed and their radioactivity content was determined in a γ-counter LKB/Wallac 1283 CompuGamma CS (Bridgeport, CT). The percentage of injected dose per gram of tissue %ID/g tiss was calculated (Table 2)."}, "[4]": {"experiment": "Radiochemical purity of formulated [^11C]1 after end-of-synthesis by analytical HPLC", "format": "physicochemical", "conditions": "within 90 min after the end-of-synthesis", "protocol": "To a 1 mL V-vial, precursor, 4-cyano-N-(2-(4-methylpiperidin-1-yl)-4-(piperazin-1-yl)phenyl)-1H-pyrrole-2-carboxamide, 8 (1 mg) was added in solution of 0.2 mL of anhydrous DMF. [^11C]Methyl iodide, carried by a stream of helium, was trapped in the precursor solution. The reaction was heated at 80 °C for 3.5 min, then quenched with 0.2 mL of water. The crude reaction product was purified by reverse-phase high performance liquid chromatography (HPLC) at a flow rate of 12 mL/min. The radiolabelled product [^11C]1 (tR = 7–8 min) was fully separated from the precursor (tR = 2.7 min) and collected in a solution of 0.3 g sodium ascorbate in 50 mL water. The aqueous solution was transferred through an activated Waters Oasis Sep-Pak Light cartridge (Milford, MA). After washing the cartridge with 10 mL saline, the product was eluted with 1 mL of ethanol through a […] sterile filter into a sterile, pyrogen-free vial containing 4 mL saline, and 10 mL of 0.9% saline was added through the same filter. The final product, [^11C]1, was analyzed by analytical HPLC to determine the radiochemical purity (> 99%) and specific radioactivity (15–23 Ci/µmol).\nHPLC conditions for [^11C]1. Preparative HPLC: Column, XBridge C18, 10 × 250 mm (Waters, Milford, MA). Mobile phase: 39%:61% acetonitrile: triethylamine-phosphate buffer, pH 7.2. Flow rate: 12 mL/min, retention time 8 min. […]"}, "[5]": {"experiment": "Dynamic PET brain uptake in control baboon", "format": "in vivo, Papio anubis baboon", "conditions": "peak at 30 min after injection", "protocol": "Dynamic PET scan was performed on a male baboon (Papio anubis, 27 kg) using the High Resolution Research Tomograph (CPS Innovations, Knoxville, TN) with an IV injection of 751 MBq (20.3 mCi) [^11C]1 [specific radioactivity: 518 TBq/mmol (14,000 Ci/mmol)]. PET imaging and data analysis and radiometabolite analysis of baboon arterial blood are described in detail in the SI Appendix.\nPET images were acquired using a CPS/CTI High Resolution Research Tomograph (HRRT), which has an axial resolution (FWHM) of 2.4 mm, and in plane resolution of 2.4–2.8 mm. The animal was anesthetized and handled as described previously. The 90 min PET data were binned into […]: four 15-s, four 30-s, three 1-min, two 2-min, five 4-min, and twelve 5-min frames. Images were reconstructed using the iterative ordered subset expectation maximization (OS-EM) algorithm (with six iterations and 16 subsets) with correction for radioactive decay, deadtime, attenuation, scatter and randoms. The reconstructed image space consisted of cubic voxels, each 1.22 mm^3 in size, and spanning dimensions of 31 cm × 31 cm (transaxially) and 25 cm (axially).\nThe image analysis and kinetic modeling were performed using software PMOD (v3.7, PMOD Technologies Ltd, Zurich, Switzerland). Dynamic PET images were first co-registered with the MRI images. […]"}, "[6]": {"experiment": "Radiometabolite analysis of baboon blood", "format": "in vivo, Papio anubis baboon", "conditions": "90 min post injection", "protocol": "(75%) at 90 min post injection.\nSamples were centrifuged at 1200×g and the radioactivity in plasma were measured with a cross-calibrated gamma counter. Selected plasma samples (5, 10, 20, 30, 60, and 90 min) were analyzed with high performance liquid chromatography (HPLC) for radioactive metabolites in plasma as described above."}, "[7]": {"set-up": "method as in PMID 30635412", "conditions": "baboon blood, 90 min post injection; cited from earlier work"}, "[8]": {"set-up": "method as in PMID 30635412", "conditions": "baboon brain, baseline PET; cited from earlier work"}}, "note": "“And” between values parts separate entries of the source, which are not always exact repeats. Equal entries are not always repeated. Where two headings read alike, the source gives them in different places."}
{"molecule": "CN1CCN(c2ccc(NC(=O)c3ccc(C#N)o3)c(N3CCCCC3)c2)CC1", "note": "[CPPC, 5-cyano-N-(4-(4-methylpiperazin-1-yl)-2-(piperidin-1-yl)phenyl)furan-2-carboxamide, reference compound]", "values": [{"measurement": "Effect of blocking on [^11C]1 brain uptake (SUVR)", "setting": "CSF1R [1]; CPPC 1 mg/kg IP 5 min before [^11C]1, LPS-treated mice", "value": "significantly decreased the uptake in the LPS-treated mice to the control level"}, {"measurement": "IC50", "setting": "CSF1R [2]", "value": "[…]"}]}
{"molecule": "CC1CCN(c2cc(N3CCN([11CH3])CC3)ccc2NC(=O)c2cc(C#N)c[nH]2)CC1", "note": "[[^11C]1, 4-cyano-N-(4-(4-[^11CH3]methylpiperazin-1-yl)-2-(4-methylpiperidin-1-yl)phenyl)-1H-pyrrole-2-carboxamide]", "values": [{"measurement": "Specific CSF1R binding (share of brain uptake)", "setting": "CSF1R [1]; LPS-treated mice, brain", "value": "~ 50% and 50%"}, {"measurement": "SUVR (SUV whole brain/SUV blood) in LPS-treated mice versus controls", "setting": "CSF1R [1]; whole brain, 40 min after injection, n = 6", "value": "significantly greater in LPS-treated mice than in controls"}, {"measurement": "Regional brain uptake", "setting": "[3]; brain stem, 2 min", "value": "[…]"}, {"measurement": "Regional brain uptake", "setting": "[3]; brain stem, 30 min", "value": "[…]"}, {"measurement": "Regional brain uptake", "setting": "[3]; brain stem, 60 min", "value": "[…]"}, {"measurement": "Regional brain uptake", "setting": "[3]; cerebellum, 2 min", "value": "[…]"}, {"measurement": "Regional brain uptake", "setting": "[3]; cerebellum, 30 min", "value": "[…]"}, {"measurement": "Regional brain uptake", "setting": "[3]; cerebellum, 60 min", "value": "[…]"}, {"measurement": "Regional brain uptake", "setting": "[3]; frontal cortex, 2 min after injection", "value": "[…]"}, {"measurement": "Regional brain uptake", "setting": "[3]; frontal cortex, 30 min", "value": "[…]"}, {"measurement": "Regional brain uptake", "setting": "[3]; frontal cortex, 60 min", "value": "[…]"}, {"measurement": "Regional brain uptake", "setting": "[3]; hippocampus, 2 min", "value": "[…]"}, {"measurement": "Regional brain uptake", "setting": "[3]; hippocampus, 30 min", "value": "[…]"}, {"measurement": "Regional brain uptake", "setting": "[3]; hippocampus, 60 min", "value": "[…]"}, {"measurement": "Regional brain uptake", "setting": "[3]; rest of brain, 2 min", "value": "[…]"}, {"measurement": "Regional brain uptake", "setting": "[3]; rest of brain, 30 min", "value": "[…]"}, {"measurement": "Regional brain uptake", "setting": "[3]; rest of brain, 60 min", "value": "[…]"}, {"measurement": "Total mouse brain uptake", "setting": "[3]; total mouse brain", "value": "[…]"}, {"measurement": "Change of radiochemical purity of final product", "setting": "[4]", "value": "did not change"}, {"measurement": "Peak brain uptake", "setting": "[5]", "value": "[…]"}, {"measurement": "Metabolism rate", "setting": "[6]", "value": "[…]"}]}
{"molecule": "[11CH3]N1CCN(c2ccc(NC(=O)c3ccc(C#N)o3)c(N3CCCCC3)c2)CC1", "note": "[[^11C]CPPC]", "values": [{"measurement": "Metabolism rate", "setting": "[7]", "value": 75, "unit": "%"}, {"measurement": "Brain uptake", "setting": "[8]", "value": 3.5, "unit": "SUV"}]}
